These are literature values, as cited in US20110189317A1, “Method for Inhibiting the Activity of DPP-IV and Lowering Blood Glucose Level” (Naturalendo Tech Co., Ltd., priority 2006, published 2011).

Like-named read-outs stand apart in the source and are kept apart here.

One data set has as its system insulin secretion. As to conditions: read-out: EC50 (half-maximal effective concentration), insulin secretion.
For data set [1] the following is noted: combined administration of Metformin with LAF237 or placebo, after 52 weeks; p<0.0001.

On to “GLP-1: incretin hormone composed of total 30 amino acids, facilitates insulin secretion”, for which the blood glucose level entry by setting is: (GLP-1 dropping for 4 hours, patients with secondary failure on oral hypoglycemic agent) “complete normalization in the blood glucose level”; (intravenously, continuously for 1 week, regular diet) “nearly normal blood glucose level”. Further, the EC50 in the data set with insulin secretion was approximately 10 pM.
As to `N#C[C@@H]1CCCN1C(=O)CNC12CC3CC(CC(O)(C3)C1)C2` [LAF237], the HbA1c difference in data set [1] was 1.1±0.2%.
